Results on four compounds are retold here after ChEMBL document CHEMBL5247632, “Current approaches and strategies to identify Hedgehog signaling pathway inhibitors for cancer therapy” (Eur J Med Chem, 2022).

Each structure is given as a SMILES string. pIC50, pKd: −log10 of the molar value. Numbered stars: 1 amine (or outer) side, 2 acyl side, 3 side chain; on linkers, the order of the positions; unused ones are H or OH. Bridge positions count the residues as written; N and C are the ends. Peptide text beside a SMILES is read from it. CH2CH2 = C(C[*:2])[*:1]

One experiment concerns the target Protein smoothened (Homo sapiens, UniProt Q99835, D473H). In words: Antagonist activity at SMO D473H mutant (unknown origin) expressed in mouse TM3 cells coexpressing Gli-luc reporter gene assessed as inhibition of Hh-Ag1.5 induced Gli luciferase activity incubated for 48 hrs by luminescence assay. The class given is cell-based.
Experiment [1] in a line: Inhibition of hedgehog signalling in Shh-stimulated mouse NIH3T3 cells coexpressing firefly luciferase gene under control of Gli-promoter and renilla gene under control of constitutive promoter assessed as inhibition of Shh-N induced luciferase expression by dual luciferase reporter assay. The class given is cell-based.
For the next experiment, the target named is Sonic hedgehog protein (Homo sapiens, UniProt Q15465). In words: Binding affinity to Shh (unknown origin) assessed as dissociation constant.
A short description of experiment [2]: Inhibition of hedgehog signalling pathway in mouse Shh Light II cells expressing Gli-luciferase reporter gene assessed as inhibition of SHHN-induced luciferase activity. The class given is cell-based. In general terms: A reporter such as luciferase makes a cellular process visible.
The nature of experiment [3]: Inhibition of hedgehog signalling pathway in mouse NIH3T3 cells by Gli-Bla reporter assay. The class given is cell-based.

Usually pIC50 stands for the IC50 on a negative log10 scale, so that one unit is a factor of ten. By pKd is commonly meant −log10 of the Kd, conventionally taken in molar units.

Chain of Protein smoothened (Q99835 28-787 D473H limits assumed): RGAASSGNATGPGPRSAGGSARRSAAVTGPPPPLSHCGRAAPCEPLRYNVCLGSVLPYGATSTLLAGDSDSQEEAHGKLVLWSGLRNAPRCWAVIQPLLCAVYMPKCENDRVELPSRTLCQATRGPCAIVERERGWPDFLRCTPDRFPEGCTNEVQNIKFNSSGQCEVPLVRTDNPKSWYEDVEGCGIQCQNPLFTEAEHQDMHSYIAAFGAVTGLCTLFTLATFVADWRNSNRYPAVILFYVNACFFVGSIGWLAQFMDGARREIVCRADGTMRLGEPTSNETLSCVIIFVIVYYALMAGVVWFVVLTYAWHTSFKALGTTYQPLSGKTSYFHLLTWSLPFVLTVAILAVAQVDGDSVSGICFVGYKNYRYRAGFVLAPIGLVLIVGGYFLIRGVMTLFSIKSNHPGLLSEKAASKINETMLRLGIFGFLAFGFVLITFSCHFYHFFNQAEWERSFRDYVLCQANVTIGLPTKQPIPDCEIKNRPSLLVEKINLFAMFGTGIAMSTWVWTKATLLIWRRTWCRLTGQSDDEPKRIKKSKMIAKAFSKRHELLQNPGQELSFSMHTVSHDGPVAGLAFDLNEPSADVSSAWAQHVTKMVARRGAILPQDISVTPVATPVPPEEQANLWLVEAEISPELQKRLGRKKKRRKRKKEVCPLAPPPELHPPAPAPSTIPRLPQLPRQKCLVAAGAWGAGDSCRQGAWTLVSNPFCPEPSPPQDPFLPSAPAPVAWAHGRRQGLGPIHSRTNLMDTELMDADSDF
Chain of Sonic hedgehog protein (Q15465 24-197 limits assumed): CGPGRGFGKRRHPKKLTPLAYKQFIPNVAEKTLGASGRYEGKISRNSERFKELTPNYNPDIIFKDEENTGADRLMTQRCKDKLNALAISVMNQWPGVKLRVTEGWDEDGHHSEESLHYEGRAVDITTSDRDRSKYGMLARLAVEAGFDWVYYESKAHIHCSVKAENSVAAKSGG

In the case of `CC1C(=O)N(c2ccc(Cl)cc2)C(=O)N1Cc1ccccc1` (stereo not given), the pIC50 at Protein smoothened was 7.30. On to `CSCC[C@@H]1NC(=O)[C@H](C)NC(=O)[C@H](CCC(=O)O)NC(=O)[C@@H](NC(=O)[C@H](Cc2c[nH]c3ccccc23)NC(=O)[C@H](CO)NC(=O)[C@H](CC(C)C)NC(=O)[C@@H](NC(C)=O)[C@@H](C)O)Cc2ccc(cc2)OCCSC[C@@H](C(=O)N[C@H](C(=O)N[C@@H](CC(=O)O)C(=O)O)[C@@H](C)O)NC(=O)[C@H](CCSC)NC(=O)[C@H](CC(=O)O)NC1=O` (Ac-TLSWYEAMDMCTD-OH; linker 5-11 via CH2CH2), for which the pIC50 in experiment [1] was 6.60. Moreover, the pKd at Sonic hedgehog protein was 6.77. Consider `CCC(C)n1ncn(-c2ccc(N3CCN(c4ccc(OCC5COC(Cn6cncn6)(c6ccc(Cl)cc6Cl)O5)cc4)CC3)cc2)c1=O` (stereo not given) [ITRACONAZOLE], for which the pIC50 in experiment [2] was 6.30. As for `CS(=O)(=O)c1ccc(C(=O)Nc2ccc(Cl)c(-c3ccccn3)c2)c(Cl)c1` [VISMODEGIB], the pIC50 in experiment [3] was 8.15.
